# Patent US20060173162A1, “Bactericidak anti-apoptotic, pro-inflammatory and anti-inflammatory peptides of heparin-binding protein (hbp)” (priority 2002, published 2006)
# B1: HBP: heparin-binding protein (HBP), isolated from azurophile granules of human PMNs; also termed CAP37, azurocidin (protein, listed as Homo sapiens)
# chain: IVGGRKARPRQFPFLASIQNQGRHFCGGALIHARFVMTAASCFQSQNPGVSTVVLGAYDLRRRERQSRQTFSISSMSENGYDPQQNLNDLMLLQLDREANLTSSVTILPLPLQNATVEAGTRCQVAGWGSQRSGGRLSRFPRFVNVTVTPEDQCRPNNVCTGVLTRRGGICNGDGGTPLVCEGLAHGVASFSLGPCGRGPDFFTRVALFRDWIDGVLNNPGPGPA
# Legend:
# Assay type in all cases: cell-based
# monocytes in WB [1] = assay: IL-6 secretion in citrated human whole blood (screening for inflammatory and anti-inflammatory potential); conditions: for LPS induced IL-6 production, variant compared to the unsubstituted peptide: in the presence of LPS, FIG. 7; for PGN induced IL-6 production, variant compared to the unsubstituted peptide: FIG. 8; for effect on LPS induced IL-6 secretion: 100 ng/ml LPS, FIG. 2; for effect on PCW induced IL-6 secretion: PCW 50 μg/ml from Staphylococcus aureus, FIG. 4; for IL-6 secretion in the absence of bacterial components: no bacterial component, peptide 0.09, 0.18, 0.36 and 0.71 mg/ml blood, FIG. 1
# Text: Human whole blood (WB) contains besides red cells, platelets and plasma the white blood cells including the neutrophils and monocytes. Neutrophils and monocytes have receptors for bacterial products such as LPS, PGN and LTA. The bacterial products react directly or via specific binding proteins to receptors on the monocytes thereby stimulating them to secrete and release inflammatory cytokines comprising, but not limited to IL-1, IL-6, and TNF-α.
# In the example to be described LPS from the E. coli is used to stimulate the monocytes in WB (anti-coagulated by use of citrate) and the activity is measured by subsequently quantifying IL-6 in plasma separated from WB. The activity of HBP, HBP derived peptides and analogues hereof are evaluated by their ability to: • 1. increase IL-6 secretion in absence of bacterial products • 2. increase IL-6 secretion in presence of bacterial products • 3. decrease IL-6 secretion in presence of bacterial products • 4. inhibit amplification of cytokine secretion induced by intact HBP
# All operations must be carried out in LAF cabinet by observance of stringent aseptic techniques. All test tubes, pipette tips etc. must be pyrogen-free. Buffers must be prepared by use of sterile, […], preferably water for injection. Use 0.1% pyrogen-free BSA/PBS for all dilutions.
# Add 20 μl of HBP derived peptide (in concentrations from 25 to 2500 μM) to 100 μl freshly drawn (less than 4 hours old) citrate whole blood from a healthy human volunteer. Add 20 μl bacterial component (LPS, LTA or PGN) in concentrations from 5 to 5000 ng/ml, preferably 50 to 500 ng/ml. Mix well and incubate for 16-18 hours in an atmosphere of 5% carbon dioxide and at least 95% relative humidity. At the end of the incubation add at least 5 volumes (700 μl) 0.1% BSA/PBS. Mix well. Centrifuge 10 min. at 10.000 g. Aspirate 500 μl supernatant. Determine the level of IL-6 by a specific human immune assay for human IL-6 with sensitivity of at least 3 pg/ml, e.g. Human IL-6 Kit from RnD Systems (cat. no. D 6050).
# Negative controls: 100 μl WB plus 40 μl 0.1% BSA/PBS. Positive control: 100 μl WB plus 20 μl LPS (same concentration as used for testing the peptide) and 20 μl 0.1% BSA/PBS.
# The human (h20-44) and porcine (p20-44) peptides were synthesized and tested in the screening assay described in Example 1. The following parameters were examined: (a) abililty to induce inflammation on their own (i.e. in the absence of any bacterial component), (b) ability to amplify or inhibit inflammation induced by a bacterial component, such as LPS from the Gram negative bacteria E. coli and PGN or Purified Cell Wall (PCW) from a Gram positive bacteria. As measure for immune stimulation secretion of the release of IL-6 in citrated whole blood was used. The peptides were tested in the concentrations 0.09, 0.18, 0.36 and 0.71 mg/ml blood. […]
# monocytes in WB [2] = assay: as above; conditions: 250 μg/ml PGN from S. aureus
# Human Neutrophils (PMNs) = assay: Apoptosis of isolated human neutrophils, TUNEL assay with flow cytometry; conditions: 25 μg HBP per ml sample; 24 h culture; control about 70%
# Method: The screening for anti-apoptotic peptides is carried out essentially as described by Shrotri M S. et al., 2000.
# Peripheral blood from normal volunteers was collected and PMNs were separated by density gradient using Ficoll-Hypaque (Sigma Chemical Co.). PMNs obtained were divided into 1-ml samples with […] and were treated and analyzed as per the protocols described below.
# Cell pellets were obtained by centrifugation at 300 g and fixed with 1% paraformaldehyde for 15 min at 4° C. Cells were washed twice and permeabilized with 70% ice-cold ethanol and stored at […]. Cells samples were washed twice and stained by the terminal dUTP nick-end labeling (TUNEL) assay using the APO-BRDU kit (Phoenix Flow Systems, San Diego, Calif.), following the manufacturer's instructions. Briefly, in this assay, the enzyme terminal deoxynucleotidyl transferase (TdT) catalyzes the addition of nucleotides to DNA strand breaks in the apoptotic cells, which are subsequently labeled with fluorescein isothiocyanate (FITC)-conjugated antinucleotide antibodies. The fluorescent cells are the apoptotic cells that are then identified or assessed using the flow cytometer (EPICS Elite, Beckman-Coulter, Hialeah, Fla.). These apoptotic cells were also visually confirmed by confocal microscopy (Meridian Instruments Inc., Okemos, Mich.).
# Time zero group. […]
# [3] = PGN 50 μg/ml from Staphylococcus aureus, peptide 0.09-0.71 mg/ml blood, FIG. 3
molecule,measurement,setting,value
NQGRPFCAGALVHPRFVLTAASCFR (Peptide fragment amino acid residues 20-44 of pHBP with mutation K20N) [pHBP 20-44 whose N-terminal amino acid residue was substituted with the human N-terminal residue],"LPS induced IL-6 production, variant compared to the unsubstituted peptide",monocytes in WB [1],less inhibitory
same,"PGN induced IL-6 production, variant compared to the unsubstituted peptide",monocytes in WB [1]; in the presence of PGN,less inhibitory
KQGRPFCAGALVHPRFVLTAASCFQ (Peptide fragment amino acid residues 20-44 of pHBP with mutation R44Q) [pHBP 20-44 with C-terminal amino acid residue replaced with the human C-terminal residue],"LPS induced IL-6 production, variant compared to the unsubstituted peptide",monocytes in WB [1],the same pattern was observed
same,"PGN induced IL-6 production, variant compared to the unsubstituted peptide",monocytes in WB [1]; in the presence of PGN,the same pattern was observed
"KQGRHFCGGALIHARFVMTAASCFR (Peptide fragment amino acid residues 20-44 of hHBP with mutations N20K,Q44R) [hHBP 20-44 with both N- and C-terminal residues substituted with the corresponding porcine residues]","LPS induced IL-6 production, variant compared to the unsubstituted peptide",monocytes in WB [1],nearly non-stimulating
same,"PGN induced IL-6 production, variant compared to the unsubstituted peptide",monocytes in WB [1]; in the presence of PGN,inhibitory
"pHBP 20-44 acetylated and amidated at the N- and C-terminal amino acids: pHBP 20-44 acetylated and amidated at the N- and C-terminal amino acids, respectively (Ac-KQGRPFCAGALVHPRFVLTAASCFR-NH2; cysteine pairing not given here; UniProt P80015 46-70, looked up, fragment)","LPS induced IL-6 production, variant compared to the unsubstituted peptide",monocytes in WB [1],more inhibitory
same,"PGN induced IL-6 production, variant compared to the unsubstituted peptide",monocytes in WB [1]; in the presence of PGN,more inhibitory
"hHBP 20-44 acetylated at the N-terminal amino group and amidated at the C-terminal carboxyl group: hHBP 20-44 acetylated at the N-terminal amino group and amidated at the C-terminal carboxyl group (Ac-NQGRHFCGGALIHARFVMTAASCFQ-NH2; cysteine pairing not given here; UniProt P20160 46-70, looked up, fragment)",fold stimulation of the PGN mediated IL-6 production,monocytes in WB [2]; FIG. 5 compared to FIG. 2,more than ten fold stimulation
same,effect on PGN induced IL-6 secretion,"monocytes in WB [2]; normalized to PGN alone, FIG. 5",stimulated the IL-6 secretion in a dose dependant way
KQGRPFCAGALVHPRFVLTAASCFR (Peptide fragment amino acid residues 20-44 of pHBP) [porcine HBP 20-44],effect on LPS induced IL-6 secretion,monocytes in WB [1]; peptide 0.09-0.71 mg/ml blood,significantly and dose-dependently inhibited
same,effect on PCW induced IL-6 secretion,monocytes in WB [1]; peptide 0.09-0.71 mg/ml blood,significantly and dose-dependently inhibited
same,effect on PGN induced IL-6 secretion,monocytes in WB [1]; [3],significantly and dose-dependently inhibited
same,IL-6 secretion in the absence of bacterial components,monocytes in WB [1],no significant or dose-dependent effect
NQGRHFCGGALIHARFVMTAASCFQ [human HBP 20-44],sum of the IL-6 secretion induced by LPS and peptide individually,monocytes in WB [1]; 100 ng/ml LPS alone plus 0.71 mg/ml peptide alone,"14,178 pg/ml"
same,"IL-6 secretion, peptide and LPS together",monocytes in WB [1]; 100 ng/ml LPS plus 0.71 mg/ml peptide,"12,130 pg/ml"
same,effect on LPS induced IL-6 secretion,monocytes in WB [1]; 0.71 mg/ml peptide,increased IL-6 secretion significantly
same,effect on LPS induced IL-6 secretion,monocytes in WB [1]; up to 0.36 mg/ml peptide,did not significantly increase
same,effect on PCW induced IL-6 secretion,monocytes in WB [1]; peptide 0.09-0.71 mg/ml blood,increased IL-6 secretion in dose-dependent way
same,effect on PGN induced IL-6 secretion,monocytes in WB [1]; [3],increased IL-6 secretion in dose-dependent way
same,IL-6 secretion in the absence of bacterial components,monocytes in WB [1],significant and dose-dependent increase
"KQGRPFCAGALVHPQFVLTAASCFR (Peptide fragment amino acid residues 20-44 of pHBP with mutation R34Q) [R34Q pHBP 20-44, substitution of arginine to glutamine in position 34 of pHBP 20-44]",effect on PGN induced IL-6 secretion,"monocytes in WB [1]; in the presence of PGN, FIG. 6",completely abolished the inhibitory effect
B1,amplification of cytokine secretion induced by bacterial products,monocytes in WB [1],at least three-fold amplification
same,cytokine secretion by HBP in itself,monocytes in WB [1]; no bacterial product,no measurable effect
same,apoptosis,Human Neutrophils (PMNs),~45%
